Source: ChEMBL document CHEMBL5729067, “Phenylacetamides as inhibitors of rock” (2022)

Target: Rho-associated protein kinase 2 (Homo sapiens, UniProt O75116)
Experiment: In Vitro Assay: The effectiveness of compounds of the present invention as ROCK inhibitors can be determined in a 30 μL assay containing 20 mM HEPES, pH 7.5, 20 mM MgCl2, 0.015% Brij-35, 4 mM DTT, 5 μM ATP and 1.5 μM peptide substrate (FITC-AHA-AKRRRLSSLRA-OH) (SEQ ID No. 1). Compounds were dissolved in DMSO so that the final concentration of DMSO was <2%, and the reaction was initiated with Rho kinase variants. After incubation, the reaction was terminated by the addition of EDTA and the phosphorylated and non-phosphorylated peptides separated using a LABCHIP® 3000 Reader (Caliper Life Sciences). […] Compounds were tested in dose-response format, and the inhibition of kinase activity was calculated at each concentration of compound. The inhibition data were fit using a curve-fitting program to determine the IC50; i.e., the concentration of compound required to inhibit 50% of kinase activity.

Sequence of Rho-associated protein kinase 2 (O75116 whole entry, looked up, change not shown): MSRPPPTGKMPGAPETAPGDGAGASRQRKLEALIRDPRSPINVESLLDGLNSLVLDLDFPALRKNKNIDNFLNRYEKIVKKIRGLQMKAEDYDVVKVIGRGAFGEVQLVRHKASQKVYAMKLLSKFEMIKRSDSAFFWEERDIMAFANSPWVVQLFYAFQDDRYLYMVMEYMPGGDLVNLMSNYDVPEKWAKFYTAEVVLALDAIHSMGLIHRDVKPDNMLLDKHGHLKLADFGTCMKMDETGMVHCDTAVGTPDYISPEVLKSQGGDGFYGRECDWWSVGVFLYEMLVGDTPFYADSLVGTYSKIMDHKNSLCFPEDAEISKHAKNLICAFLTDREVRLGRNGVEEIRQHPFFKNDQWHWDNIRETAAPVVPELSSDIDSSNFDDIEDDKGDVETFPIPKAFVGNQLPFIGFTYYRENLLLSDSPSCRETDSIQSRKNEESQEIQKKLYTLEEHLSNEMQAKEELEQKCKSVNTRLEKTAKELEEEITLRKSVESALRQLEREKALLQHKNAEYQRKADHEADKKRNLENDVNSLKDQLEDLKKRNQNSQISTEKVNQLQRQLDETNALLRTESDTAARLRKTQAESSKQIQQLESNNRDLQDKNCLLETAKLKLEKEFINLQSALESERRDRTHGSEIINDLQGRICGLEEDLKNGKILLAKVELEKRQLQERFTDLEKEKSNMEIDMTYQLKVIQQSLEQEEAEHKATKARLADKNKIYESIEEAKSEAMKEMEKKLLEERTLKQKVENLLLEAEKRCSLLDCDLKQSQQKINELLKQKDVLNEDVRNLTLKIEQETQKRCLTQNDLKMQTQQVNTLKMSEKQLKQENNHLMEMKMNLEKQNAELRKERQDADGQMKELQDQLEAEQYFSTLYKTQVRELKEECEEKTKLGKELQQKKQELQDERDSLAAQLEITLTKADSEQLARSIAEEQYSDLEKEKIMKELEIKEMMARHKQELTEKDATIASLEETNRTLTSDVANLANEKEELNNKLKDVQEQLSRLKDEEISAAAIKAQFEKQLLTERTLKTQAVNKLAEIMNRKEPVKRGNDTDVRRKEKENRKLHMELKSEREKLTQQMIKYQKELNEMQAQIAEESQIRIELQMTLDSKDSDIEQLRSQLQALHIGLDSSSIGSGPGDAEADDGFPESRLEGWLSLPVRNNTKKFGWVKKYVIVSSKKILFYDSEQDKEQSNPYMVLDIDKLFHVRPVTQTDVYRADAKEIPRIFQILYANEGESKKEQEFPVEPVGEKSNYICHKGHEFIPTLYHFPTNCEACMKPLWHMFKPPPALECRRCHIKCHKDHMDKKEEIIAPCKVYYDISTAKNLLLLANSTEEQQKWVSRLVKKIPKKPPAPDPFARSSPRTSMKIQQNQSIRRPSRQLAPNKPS

Compound `Cc1sc(C(=O)Cc2ccc(Oc3ncccc3C(N)=O)cc2)nc1-c1ccccc1` has an IC50 of 87 nM.
